Experimental data taken from US8481540B2, “Inhibitors of bruton's tyrosine kinase” (Hoffmann-La Roche Inc., priority 2010, dated 2013).

Key:
B cells in human blood = assay: Inhibition of B cell activation in whole blood measured by CD69 expression; format: cell-based; conditions: CD69-positive, CD20-positive cells after anti-IgM stimulation, human whole blood, 20 hours, read-out: Human Whole Blood
Summary of the method: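 Heparinised human whole blood was preincubated with compound (nine-point, three-fold dilutions) for 30 min at 37 °C. It was then stimulated with 50 μg/ml goat F(ab′)2 anti-human IgM for 20 hours. CD20/CD69 staining, red-cell lysis and flow cytometry gave percent CD69-positive cells, from which IC50 values were calculated.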

Row | SMILES | IC50 (B cells in human blood) [nM] | melting point [°C]
1 | CCNC(C)(C)c1ccc(Nc2cc(-c3cccc(-n4ncc5cc(C(C)(C)C)cc(F)c5c4=O)c3CO)nn(C)c2=O)nc1 [I-1, 6-tert-butyl-2-(3-{5-[5-(1-ethylamino-1-methyl-ethyl)-pyridin-2-ylamino]-1-methyl-6-oxo-1,6-dihydro-pyridazin-3-yl}-2-hydroxymethyl-phenyl)-8-fluoro-2H-phthalazin-1-one] | 19 | 229 to 233
2 | Cn1nc(-c2cccc(-n3ncc4cc(C(C)(C)C)cc(F)c4c3=O)c2CO)cc(Nc2cnc(C(F)(F)F)cn2)c1=O [I-11, 6-tert-butyl-8-fluoro-2-{2-hydroxymethyl-3-[1-methyl-6-oxo-5-(5-trifluoromethyl-pyrazin-2-ylamino)-1,6-dihydro-pyridazin-3-yl]-phenyl}-2H-phthalazin-1-one] | – | 250 to 254
3 | CN(C)CCOc1cnc(Nc2cc(-c3cccc(-n4ncc5cc(C(C)(C)C)cc(F)c5c4=O)c3CO)nn(C)c2=O)cn1 [I-36, 6-tert-Butyl-2-(3-{5-[5-(2-dimethylamino-ethoxy)-pyrazin-2-ylamino]-1-methyl-6-oxo-1,6-dihydro-pyridazin-3-yl}-2-hydroxymethyl-phenyl)-8-fluoro-2H-phthalazin-1-one] | – | 185 to 190
4 | Cn1nc(-c2cccc(-n3ncc4cc(C(C)(C)C)cc(F)c4c3=O)c2CO)cc(Nc2cnc([C@H](O)CO)cn2)c1=O [I-57, 6-tert-Butyl-2-(3-{5-[5-((S)-1,2-dihydroxy-ethyl)-pyrazin-2-ylamino]-1-methyl-6-oxo-1,6-dihydro-pyridazin-3-yl}-2-hydroxymethyl-phenyl)-8-fluoro-2H-phthalazin-1-one] | – | 218 to 224
5 | CN1CCC[C@H]1c1ccc(Nc2cc(-c3cccc(-n4ccc5cc(C(C)(C)C#N)cc(F)c5c4=O)c3CO)nn(C)c2=O)nc1 [I-76, 2-[8-Fluoro-2-(2-hydroxymethyl-3-{1-methyl-5-[5-((S)-1-methyl-pyrrolidin-2-yl)-pyridin-2-ylamino]-6-oxo-1,6-dihydro-pyridazin-3-yl}-phenyl)-1-oxo-1,2-dihydro-isoquinolin-6-yl]-2-methyl-propionitrile] | 51 | –
6 | CN1CC[C@@H](c2ccc(Nc3cc(-c4cccc(-n5ccc6cc(C(C)(C)C#N)cc(F)c6c5=O)c4CO)nn(C)c3=O)nc2)C1 [I-77, 2-[8-Fluoro-2-(2-hydroxymethyl-3-{1-methyl-5-[5-((S)-1-methyl-pyrrolidin-3-yl)-pyridin-2-ylamino]-6-oxo-1,6-dihydro-pyridazin-3-yl}-phenyl)-1-oxo-1,2-dihydro-isoquinolin-6-yl]-2-methyl-propionitrile] | 123 | –
7 | Cn1nc(-c2cccc(N3CCc4cc(C(C)(C)C#N)cc(F)c4C3=O)c2CO)cc(Nc2ccc(OC(C)(C)CN3CCC3)cn2)c1=O [I-78, 2-[2-(3-{5-[5-(2-azetidin-1-yl-1,1-dimethyl-ethoxy)-pyridin-2-ylamino]-1-methyl-6-oxo-1,6-dihydro-pyridazin-3-yl}-2-hydroxymethyl-phenyl)-8-fluoro-1-oxo-1,2,3,4-tetrahydro-isoquinolin-6-yl]-2-methyl-propionitrile] | 84 | –
8 | Cn1nc(-c2cccc(-n3ccc4cc(C(C)(C)C#N)cc(F)c4c3=O)c2CO)cc(Nc2cc3n(n2)CCN(C2COC2)C3)c1=O [I-79, 2-(8-Fluoro-2-{2-hydroxymethyl-3-[1-methyl-5-(5-oxetan-3-yl-4,5,6,7-tetrahydro-pyrazolo[1,5-a]pyrazin-2-ylamino)-6-oxo-1,6-dihydro-pyridazin-3-yl]-phenyl}-1-oxo-1,2-dihydro-isoquinolin-6-yl)-2-methyl-propionitrile] | 60 | –
9 | Cn1nc(-c2cccc(-n3ncc4cc(C(C)(C)C)cc(F)c4c3=O)c2CO)cc(Nc2ccc(C3CCN(C4COC4)CC3)cn2)c1=O [I-80, 6-tert-Butyl-8-fluoro-2-{2-hydroxymethyl-3-[1-methyl-5-(1′-oxetan-3-yl-1′,2′,3′,4′,5′,6′-hexahydro-[3,4]bipyridinyl-6-ylamino)-6-oxo-1,6-dihydro-pyridazin-3-yl]-phenyl}-2H-phthalazin-1-one] | 41 | –
10 | CCN1CCn2nc(Nc3cc(-c4cccc(-n5ncc6cc(C(C)(C)C)cc(F)c6c5=O)c4CO)nn(C)c3=O)cc2C1 [I-82, 6-tert-Butyl-2-{3-[5-(5-ethyl-4,5,6,7-tetrahydro-pyrazolo[1,5-a]pyrazin-2-ylamino)-1-methyl-6-oxo-1,6-dihydro-pyridazin-3-yl]-2-hydroxymethyl-phenyl}-8-fluoro-2H-phthalazin-1-one] | 17 | –
11 | CCN1CCn2nc(Nc3cc(-c4cccc(-n5ccc6cc(C(C)(C)C#N)cc(F)c6c5=O)c4CO)nn(C)c3=O)cc2C1 [I-83, 2-(2-{3-[5-(5-Ethyl-4,5,6,7-tetrahydro-pyrazolo[1,5-a]pyrazin-2-ylamino)-1-methyl-6-oxo-1,6-dihydro-pyridazin-3-yl]-2-hydroxymethyl-phenyl}-8-fluoro-1-oxo-1,2-dihydro-isoquinolin-6-yl)-2-methyl-propionitrile] | 70 | –
12 | Cn1nc(-c2cccc(-n3ncc4cc(C(C)(C)C)cc(F)c4c3=O)c2CO)cc(Nc2ccc(CN3CCC(C)(O)CC3)cn2)c1=O [I-85, 6-tert-Butyl-8-fluoro-2-(2-hydroxymethyl-3-{5-[5-(4-hydroxy-4-methyl-piperidin-1-ylmethyl)-pyridin-2-ylamino]-1-methyl-6-oxo-1,6-dihydro-pyridazin-3-yl}-phenyl)-2H-phthalazin-1-one] | 294 | –
13 | CCOC(=O)N1CCN(c2ccc(Nc3cc(-c4cccc(-n5ncc6cc(C(C)(C)C)cc(F)c6c5=O)c4CO)nn(C)c3=O)nc2)CC1 [I-86, 4-(6-{6-[3-(6-tert-Butyl-8-fluoro-1-oxo-1H-phthalazin-2-yl)-2-hydroxymethyl-phenyl]-2-methyl-3-oxo-2,3-dihydro-pyridazin-4-ylamino}-pyridin-3-yl)-piperazine-1-carboxylic acid ethyl ester] | 408 | –
14 | Cn1nc(-c2cccc(-n3ccc4cc(C(C)(C)CF)cc(F)c4c3=O)c2CO)cc(Nc2ccc(C(=O)N3CCOCC3)cn2)c1=O [I-87, 8-Fluoro-6-(2-fluoro-1,1-dimethyl-ethyl)-2-(2-hydroxymethyl-3-{1-methyl-5-[5-(morpholine-4-carbonyl)-pyridin-2-ylamino]-6-oxo-1,6-dihydro-pyridazin-3-yl}-phenyl)-2H-isoquinolin-1-one] | 455 | –
15 | CN1C[C@@H]2C[C@H]1CN2c1cnc(Nc2cc(-c3cccc(-n4ncc5cc(C(C)(C)C)cc(F)c5c4=O)c3CO)nn(C)c2=O)cn1 [I-88, 6-tert-Butyl-8-fluoro-2-(2-hydroxymethyl-3-{1-methyl-5-[5((1S,4S)-5-methyl-2,5-diaza-bicyclo[2.2.1]hept-2-yl)-pyrazin-2-ylamino]-6-oxo-1,6-dihydro-pyridazin-3-yl}-phenyl)-2H-phthalazin-1-one] | 203 | –
16 | Cn1nc(-c2cccc(-n3ncc4cc(C(C)(C)C)cc(F)c4c3=O)c2CO)cc(Nc2ccc(C3CCN(CC(F)(F)F)CC3)cn2)c1=O [I-90, 6-tert-butyl-8-fluoro-2-(2-hydroxymethyl-3-{1-methyl-6-oxo-5-[1′-(2,2,2-trifluoro-ethyl)-1′,2′,3′,4′,5′,6′-hexahydro-[3,4′]bipyridinyl-6-ylamino]-1,6-dihydro-pyridazin-3-yl}-phenyl)-2H-phthalazin-1-one] | 340 | –
